The test system of one experiment is normal WI-38 cells. In words: Cell growth inhibition assay, normal cells. To be noted: Homo sapiens, read-out: IC50, normal cell viability. Format: cell-based. On the procedure:
(§1) Cells were seeded in opaque-walled 96-well microplates at appropriate densities according to the growth curves (data no shown). On the following day cells were dosed with compounds. After 7 days treatments, cells viability was measured by adding 30μL CellTiter-Glo reagent (Promega) and incubated for 10 min at RT. Luminescence was measured by Envision plate reader (Perkin Elmer). For synergy analysis, the survival rates of the cells upon different treatment combinations were calculated based on the luminescence and analyzed by Combenefit software. The bliss independence model was used to analyzed the interaction between two tested articles to determine if the interaction between those two tested articles was synergistic, independent or antagonistic.

The next experiment has as its system Daudi cells. The experiment in a line: Cell growth inhibition assay (CellTiter-Glo) and Bliss synergy analysis. To be noted: Homo sapiens, 168 h, 7 days; for IC50: estimated from four-parameter curve. Format: cell-based. As for the experimental part:
as §1

For a further experiment, the system named is KP-4 cells. Described as above. To be noted: Homo sapiens, KP-4, 168 h; 7 days, estimated from four-parameter curve. Format: cell-based. As for the experimental part:
as §1

In another experiment the test system is A549 cells. The description is as above. To be noted: Homo sapiens, A549, 168 h; 7 days, estimated from four-parameter curve. Format: cell-based. As for the experimental part:
as §1

Another experiment deals with MDA-MB-436 cells. The description is as above. Format: cell-based. To be noted: Homo sapiens, MDA-MB-436, 168 h; 7 days, estimated from four-parameter curve. As for the experimental part:
as §1

Another experiment has as its system NCI-H23 cells. Described as above. Format: cell-based. To be noted: Homo sapiens, NCI-H23, 168 h; 7 days, estimated from four-parameter curve. On the procedure: as §1
The next experiment relates to MIA PaCa-2 cells. Described as above. Format: cell-based. To be noted: Homo sapiens, MIA PaCa-2, 168 h; 7 days, estimated from four-parameter curve. As for the experimental part:
as §1

The next experiment relates to Z-138 cells. In words: Cell growth inhibition assay (CellTiter-Glo). To be noted: Homo sapiens, Z-138, 168 h; 7 days, estimated from four-parameter curve. Format: cell-based. On the procedure: as §1
A further experiment has as its system NCI-H526 cells. The experiment in a line: Cell growth inhibition assay (CellTiter-Glo). To be noted: Homo sapiens, NCI-H526, 168 h; 7 days, estimated from four-parameter curve. Format: cell-based. On the procedure: as §1
The subject of a further experiment is HuP-T4 cells. The experiment in a line: Cell growth inhibition assay (CellTiter-Glo). To be noted: Homo sapiens, HuP-T4, 168 h; 7 days, estimated from four-parameter curve. Format: cell-based. On the procedure:
as §1

In another experiment the test system is HCC15 cells. The experiment in a line: Cell growth inhibition assay (CellTiter-Glo). Format: cell-based. To be noted: Homo sapiens, HCC15, 168 h; 7 days, estimated from four-parameter curve. As for the experimental part:
as §1

The test system of another experiment is HCC1937 cells. The experiment in a line: Cell growth inhibition assay (CellTiter-Glo). Format: cell-based. To be noted: Homo sapiens, HCC1937, 168 h; 7 days, estimated from four-parameter curve. As for the experimental part: as §1
For the next experiment, the system named is NCI-H1563 cells. The experiment in a line: Cell growth inhibition assay (CellTiter-Glo). Format: cell-based. To be noted: Homo sapiens, NCI-H1563, 168 h; 7 days, estimated from four-parameter curve. On the procedure:
as §1

For the next experiment, the system named is MDA-MB-231 cells. In words: Cell growth inhibition assay (CellTiter-Glo). Format: cell-based. To be noted: Homo sapiens, MDA-MB-231, 168 h; 7 days, estimated from four-parameter curve. On the procedure:
as §1

A further experiment relates to Raji cells. In words: Cell growth inhibition assay (CellTiter-Glo). Format: cell-based. To be noted: Homo sapiens, 168 h, 7 days, estimated from four-parameter curve. As for the experimental part: as §1
Another experiment has as its system MDA-MB-468 cells. In words: Cell growth inhibition assay (CellTiter-Glo). Format: cell-based. To be noted: Homo sapiens, MDA-MB-468, 168 h; 7 days, estimated from four-parameter curve. On the procedure:
as §1

The subject of another experiment is Daudi xenograft. The experiment in a line: Daudi xenograft mouse model, tumor growth inhibition. Format: in vivo. To be noted: 2 mg/kg Cisplatin intraperitoneally every week. As for the experimental part:
Daudi xenograft mouse model was established by subcutaneously implantation of 10^7 cells into the female BABL/c nude mice at the age of 6-8 weeks. When tumors reached approximately 100-120 mm^3, the mice were randomly grouped into five groups (n=6) and treated with vehicle control orally every day, 30 mg/kg or 100 mg/kg Cpd-4 orally every day, 2 mg/kg Cisplatin intraperitoneally every week, or combination of 30 mg/kg Cpd-4 and 2 mg/kg Cisplatin. Cpd-4 was formulated in 30% PEG400 (Sigma) and 70% 10% vitamin E TPGS (Sigma) in water. Cisplatin was reconstituted in normal saline. Cpd-4 was administrated starting from Day 0 and Cisplatin was administrated starting from on Day1. Cisplatin was administrated 4 hours after the treatment of Cpd-4 at day 1, 8 and 15. Tumor volume was monitored twice a week.
The long diameter (a) and the short diameter (b) of the tumor were measured using caliper and the tumor volume (v was calculated using the following formula: […]
Tumor growth inhibition was calculated using the formula:
TGI(%)=(1−(Vt(treatment group)−V0(treatment group))/Vt(vehicle group)−V0(vehicle group))×100%
V0 is the tumor volume of the animal when treatment starts; vtis the tumor volume of the animal someday after treatment. The statistics of tumor volume was analyzed by two-way ANOVA followed by Tukey’s multiple comparisons test using GraphPad Prism 8.0.

Experiment [1] concerns 15 human tumor cell lines. The experiment in a line: Cell growth inhibition assay, panel summary. Format: cell-based. To be noted: lowest to highest, upper end printed as over 25 μM, read-out: IC50 values across the 15 cell lines. As for the experimental part: as §1

SMILES strings stand for the structures. A value given as a limit tells only on which side of the number the result lay.

As for `CC(C)OC(=O)Nc1ccc(-c2cnc(C3CCC(NC(=O)OC(C)C)CC3)s2)c(S(=O)(=O)C2CC2)c1` (stereo not shown) [Cpd-2], the IC50 in the experiment with normal WI-38 cells was more than 10 µM; with Daudi cells, 0.048 µM; in the experiment with KP-4 cells, 3.17 µM; in the experiment with A549 cells, 3.96 µM; in the experiment on MDA-MB-436 cells it was 2.65 µM; in the experiment with NCI-H23 cells it was 3.54 µM. The IC50 is 4.73 µM in the experiment with MIA PaCa-2 cells; 4.57 µM in the experiment on Z-138 cells; 0.353 µM in the experiment with NCI-H526 cells; 7.99 µM in the experiment on HuP-T4 cells; 2.02 µM in the experiment with HCC15 cells; 3.29 µM in the experiment on HCC1937 cells. For the same molecule, the IC50 in the experiment on NCI-H1563 cells is 12.8 µM; in the experiment with MDA-MB-231 cells it was 5.15 µM; in the experiment with Raji cells, 0.164 µM; with MDA-MB-468 cells, 0.63 µM. Moreover, the inhibition at 0.25 µM in the experiment on Daudi cells (Cpd-2 250 nM) was 41.1%.

In the case of `N.N.[Cl][Pt][Cl]` [Cisplatin, cisplatin], in the experiment on Daudi xenograft, the TGI is on record as 20.7%.

Take `O=C(c1cc(Cc2n[nH]c(=O)c3ccccc23)ccc1F)N1CCN(C(=O)C2CC2)CC1` [Olaparib, olaparib]: the IC50 in the experiment with Daudi cells is 5.78 µM; in the experiment with KP-4 cells, 7.09 µM; in the experiment with A549 cells it was 17.8 µM; in the experiment on MDA-MB-436 cells it was 0.134 µM; in the experiment with NCI-H23 cells it was 3.3 µM; in the experiment on MIA PaCa-2 cells, 7.16 µM. Also, the IC50 in the experiment on Z-138 cells is 1.49 µM; in the experiment on NCI-H526 cells, 3.91 µM; in the experiment on HuP-T4 cells, 7.71 µM; in the experiment on HCC15 cells, 9.17 µM; with HCC1937 cells, 10.7 µM; in the experiment on NCI-H1563 cells it was more than 25 µM. In addition, the IC50 in the experiment with MDA-MB-231 cells is 4.92 µM; with Raji cells, 4.87 µM; in the experiment on MDA-MB-468 cells, 5.55 µM; in [1], 0.134 to 25 µM.

The IC50 is the concentration that inhibits the measured activity by half. Broadly, the inhibition is the percentage by which the read-out fell short of the control. The TGI is how far tumour growth fell short of that in controls.
